From patent US9526785B2, “Pharmaceuticals for oral delivery” (Enteris BioPharma, Inc., priority 2013, dated 2016)
Converted amounts (≈) assume the structure as drawn. Like-named read-outs stand apart in the source and are kept apart here.

Tests used:
[1] = Tigecycline plasma PK after IV bolus in dogs; format: in vivo, Beagle dogs; conditions: female, beagle, dog, plasma; for AUC(0-t) / Cmax: iv
Description: Adult beagle dogs weighing approximately 9 to 15 kg were used in the study. […] Room temperature was set to be maintained between approximately 20±5° C. Relative humidity was monitored but not controlled.
TEKLAD™ Certified Canine Diet was provided once daily in amounts (˜400 grams) appropriate for the size and age of the animals. Tap water was available ad libitum via automatic watering device or water bowls.
Doses are expressed in terms of free net tigecycline content. […] Oral dosing of enteric-coated capsules was accomplished by administering them to the back of the dog's mouth, followed by a chase of 5 mL water to ensure swallowing.
Water was provided ad libitum. […] Subsequently, each group of animals was dosed based on the protocol, i.e. either IV, or PO by capsule.
Minocycline (VWR international) was used as an internal standard. Sample processing/clean-up of plasma samples was carried out offline by protein precipitation with acidified acetonitrile using 0.5% trifluoroacetic acid (TFA).
The HPLC system consisted of Shimadzu SIL-HTc HPLC system equipped with dual Shimadzu LC-10ADvp isopumps, a Shimadzu CTO-10ASvp column temperature controller and a Shimadzu SPD-10Avp variable wavelength detector. […] Mobile phase A consisted of 23 mM phosphate buffer pH 2.5 with 4 mM 1-octanesulfonic acid, while mobile phase B consisting of 90% acetonitrile, 10% water, with 2 mM 1-octanesulfonic acid. […] The total runtime was 18 minutes per sample. The mobile phase flow rate was 1.2 mL/min. Detection was performed using the SPD-10Avp variable wavelength detector set at 350 nm, with a sensitivity of 0.001 aufs.
The samples were then centrifuged under refrigeration at 13 k rpm for 5 minutes. The supernatant was taken and the liquid removed to dryness under nitrogen in a turbovap. The dried extract was reconstituted in 60 μL of mobile phase A and the suspension was further centrifuged at 5 k rpm for 5 minutes to pellet any insoluble matter. The resulting supernatant was then injected onto the LC.
The unknown concentration in dog plasma samples was determined by interpolation of the peak area ratios of analyte:internal standard versus the ratio of their nominal concentrations into the regression line obtained from calibration standards spiked in pooled dog plasma. No regression weighting was used for the calculations. […] The calibration curve covered the range of 0.05 μg/mL to 5 μg/mL.
It should be noted however, that when the method was transferred to an older HPLC system (equipped with a Shimadzu SCT-10Avp system controller and SIL-10A autoinjector), the time program was further altered such that the gradient went to 38% mobile phase B to account to system design changes. All other parameters remained unchanged.
Tigecycline PK parameters for individual dogs were calculated using non-compartmental analysis with PK Functions for Microsoft Excel.

[2] = system: Methicillin-Resistant Staphylococcus aureus (MRSA), Stenotrophomonas maltophilia, Haemophilus influenzae, and Neisseria gonorrhoeae; conditions: reported values; cited from earlier work
[3] = intravenous, 1 mg, Tigecycline Plasma Concentration, 1 mg IV in PBS (0.08 mg/kg), SC427, mean
[4] = intravenous, 5 mg, Tigecycline Plasma Concentration, 5 mg IV in PBS ([…]), SC431, individual dogs
[5] = intravenous, 5 mg, Tigecycline Plasma Concentration, 5 mg IV in PBS ([…]), SC431, mean

CN(C)c1cc(NC(=O)CNC(C)(C)C)c(O)c2c1C[C@H]1C[C@H]3[C@H](N(C)C)C(O)=C(C(N)=O)C(=O)[C@@]3(O)C(O)=C1C2=O [Tigecycline]
concentration at 120 min [1, 3]: 0.0111 µg/mL | concentration at 360 min [1, 3]: 0.00115 µg/mL | concentration at 5 min [1, 4]: 0.336 µg/mL | concentration at 5 min [1, 5]: 0.335 µg/mL | concentration at 10 min [1, 4]: 0.198 µg/mL | concentration at 10 min [1, 5]: 0.163 µg/mL | concentration at 15 min [1, 4]: 0.122 µg/mL | concentration at 15 min [1, 5]: 0.111 µg/mL | concentration at 20 min [1, 4]: 0.117 µg/mL | concentration at 20 min [1, 5]: 0.0944 µg/mL | concentration at 30 min ([1]; intravenous, 5 mg, Tigecycline Plasma Concentration, 30 min, 5 mg IV in PBS ([…]), SC431, mean): 0.0762 µg/mL | concentration at 40 min [1, 4]: 0.072 µg/mL | concentration at 40 min [1, 5]: 0.0605 µg/mL | concentration at 60 min ([1]; intravenous, 5 mg, Tigecycline Plasma Concentration, 60 min, 5 mg IV in PBS ([…]), SC431, mean): 0.0491 µg/mL | concentration at 90 min [1, 4]: 0.0599 µg/mL | concentration at 90 min [1, 5]: 0.0474 µg/mL | concentration at 120 min [1, 5]: 0.0423 µg/mL | concentration at 360 min [1, 5]: 0.0165 µg/mL | AUC(0-t) ([1]; 0.08 mg/kg, 1 mg IV in PBS (0.08 mg/kg), SC427, individual dogs, read-out: AUC(0-t)): 0.0562 µg·h/mL | Cmax ([1]; 0.08 mg/kg, 1 mg IV in PBS (0.08 mg/kg), SC427, individual dogs, read-out: Cmax): 0.086 µg/mL | AUC(0-t) ([1]; 0.08 mg/kg, 1 mg IV in PBS (0.08 mg/kg), SC427, mean, read-out: AUC(0-t)): 0.0724 µg·h/mL | Cmax ([1]; 0.08 mg/kg, 1 mg IV in PBS (0.08 mg/kg), SC427, mean, read-out: Cmax): 0.0791 µg/mL | AUC(0-t) ([1]; 0.08 mg/kg, IV bolus 1 mg (0.08 mg/kg), SC427, read-out: AUC(0-t), mean): 0.0724 µg·h/mL | Cmax ([1]; 0.08 mg/kg, IV bolus 1 mg (0.08 mg/kg), SC427, read-out: Cmax, mean): 0.0791 µg/mL | AUC(0-t) ([1]; 0.08 mg/kg, IV, Study 1 (SC427), 1 mg (0.08 mg/kg), mean (% CV), read-out: AUC(0-t)): 0.0724 µg·h/mL | Cmax ([1]; 0.08 mg/kg, IV, Study 1 (SC427), 1 mg (0.08 mg/kg), mean (% CV), read-out: Cmax): 0.0791 µg/mL | Cmax ([1]; […], 5 mg IV in PBS ([…]), SC431, individual dogs, read-out: Cmax): 0.336 µg/mL | AUC(0-t) ([1]; […], 5 mg IV in PBS ([…]), SC431, mean, read-out: AUC(0-t)): 0.411 µg·h/mL | Cmax ([1]; […], 5 mg IV in PBS ([…]), SC431, mean, read-out: Cmax): 0.335 µg/mL | AUC(0-t) ([1]; […], IV bolus 5 mg ([…]), SC431, read-out: AUC(0-t), mean): 0.411 µg·h/mL | Cmax ([1]; […], IV bolus 5 mg ([…]), SC431, read-out: Cmax, mean): 0.335 µg/mL | AUC(0-t) ([1]; […], IV, Study 2 (SC431), 5 mg ([…]), mean (% CV), read-out: AUC(0-t)): 0.411 µg·h/mL | Cmax ([1]; […], IV, Study 2 (SC431), 5 mg ([…]), mean (% CV), read-out: Cmax): 0.335 µg/mL | Tmax ([1]; IV bolus 1 mg (0.08 mg/kg), SC427, read-out: Tmax, mean (converted)): 5 min | Tmax ([1]; IV bolus 5 mg (0.42 mg/kg), SC431, read-out: Tmax (converted)): 5 min | MIC [2]: 2 mg/L (≈ 3.41 µM)
